Results from EP4678638A1, “NEW E3 UBIQUITIN LIGASE LIGAND, PROTEIN DEGRADATION AGENT AND USE THEREOF” (priority 2023, dated 2024).

The compounds below were run against T1, FAK (Homo sapiens, UniProt Q05397) (assay: Western blot degradation of FAK). Conditions: Table D7.
T1 construct: evaluate the effects of the compounds of the present disclosure on the expression of target proteins in cells; endogenous in cells
Type: cell-based
Description: Conventional Western blot assay was performed to evaluate the effects of the compounds of the present disclosure on the expression of target proteins in cells.
(1) Cell Seeding and Protein Harvesting: The selected cells were processed according to the cell seeding procedure and protein harvesting procedure in Table III-2. Table III-2 Cell Seeding and Protein Harvesting Procedures
(2) To the collected supernatant, 5X SDS sample loading buffer was added, followed by denaturation at 95°C for 5 minutes. The denatured samples were then separated by SDS-PAGE electrophoresis on a polyacrylamide gel. Proteins were transferred to a nitrocellulose membrane (0.45 µm NC membrane), blocked with blocking buffer at room temperature for 1 hour, and subjected to antibody incubation and development procedures according to the antibody manufacturer's instructions (Cell Signaling Technology).
Half-Maximal Degradation Concentration value (the drug concentration required for degrading proteins by 50%, abbreviated as DC50) reads method: comparing the grayscale values of Western blot bands from drug-treated samples with those from blank DMSO-treated controls, and identifying the drug concentration range at which the grayscale value is half that of the DMSO-treated control bands.
DC50 values can be calculated using ImageJ software to measure grayscale values of Western blot bands from drug-treated samples. The concentration-response curve is fitted to estimate the drug concentration corresponding to half the grayscale value.
Target protein remaining (%) refers to the percentage of target protein remaining in hPBMC cells after treatment with protein degrader compounds.
Calculation method for target protein remaining (%): Use ImageJ software to measure grayscale values of Western blot bands from drug (protein degrader)-treated samples. The grayscale value of drug-treated bands is divided by that of internal control protein bands, and the resulting quotient is normalized to obtain the relative percentage of remaining target protein after protein degrader treatment.
Target protein degradation rate (%) = 100% - target protein remaining (%).

T1 sequence (Q05397 whole entry, species assumed): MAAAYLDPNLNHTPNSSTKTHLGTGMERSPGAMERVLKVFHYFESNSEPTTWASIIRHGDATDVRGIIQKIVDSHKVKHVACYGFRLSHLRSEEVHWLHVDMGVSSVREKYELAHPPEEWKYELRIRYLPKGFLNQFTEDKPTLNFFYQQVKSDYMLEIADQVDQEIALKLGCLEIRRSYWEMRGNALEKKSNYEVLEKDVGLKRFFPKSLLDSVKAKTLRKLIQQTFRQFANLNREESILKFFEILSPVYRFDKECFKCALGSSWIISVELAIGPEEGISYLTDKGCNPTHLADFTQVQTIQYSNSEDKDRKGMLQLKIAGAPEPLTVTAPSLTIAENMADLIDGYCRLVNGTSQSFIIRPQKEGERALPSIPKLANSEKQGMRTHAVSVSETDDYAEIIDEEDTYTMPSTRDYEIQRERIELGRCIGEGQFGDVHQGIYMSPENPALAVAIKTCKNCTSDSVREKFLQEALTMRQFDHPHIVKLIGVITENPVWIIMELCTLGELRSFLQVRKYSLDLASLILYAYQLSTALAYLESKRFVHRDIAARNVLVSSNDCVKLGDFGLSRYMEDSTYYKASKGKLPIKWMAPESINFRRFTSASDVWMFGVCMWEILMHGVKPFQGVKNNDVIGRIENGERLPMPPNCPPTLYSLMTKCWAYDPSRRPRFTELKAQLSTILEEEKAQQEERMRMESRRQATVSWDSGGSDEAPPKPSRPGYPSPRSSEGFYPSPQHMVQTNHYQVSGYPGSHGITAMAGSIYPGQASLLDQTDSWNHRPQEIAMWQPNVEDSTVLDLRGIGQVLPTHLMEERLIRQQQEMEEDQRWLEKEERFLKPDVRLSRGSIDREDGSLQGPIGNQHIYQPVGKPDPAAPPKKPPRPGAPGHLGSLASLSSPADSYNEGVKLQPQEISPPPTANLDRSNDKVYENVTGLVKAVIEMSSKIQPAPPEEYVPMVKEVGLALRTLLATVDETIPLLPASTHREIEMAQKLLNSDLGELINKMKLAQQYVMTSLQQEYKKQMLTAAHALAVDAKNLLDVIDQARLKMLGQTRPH

Compound | Degradation of substrate protein FAK (substrate protein remaining %)
CNC(=O)c1ccccc1Nc1cc(Nc2cc(C)c(C3CCN(Cc4ccc(C5CCC(=O)NC5=O)cc4)CC3)cc2OC(C)C)ncc1C(F)(F)F (stereo not shown) [GT-04084, 2-((2-((4-(1-(4-(2,6-dioxopiperidin-3-yl)benzyl)piperidin-4-yl)-2-isopropoxy-5-methylphenyl)amino)-5-(trifluoromethyl)pyridin-4-yl)amino)-N-methylbenzamide] | A (A is defined as 0% ≤ substrate protein remaining % ≤ 80%)
CNC(=O)c1ccccc1Nc1cc(Nc2cc(C)c(N3CCN(Cc4ccc(C5CCC(=O)NC5=O)c(F)c4)CC3)cc2OC(C)C)ncc1C(F)(F)F (stereo not shown) [GT-03947, 2-((2-((4-(4-(4-(2,6-dioxopiperidin-3-yl)-3-fluorobenzyl)piperazin-1-yl)-2-isopropoxy-5-methylphenyl)amino)-5-(trifluoromethyl)pyridin-4-yl)amino)-N-methylbenzamide] | A (A is defined as 0% ≤ substrate protein remaining % ≤ 80%)
CN(c1nccnc1CNc1nc(Nc2ccc(N3CCN(Cc4cncc(C5CCC(=O)NC5=O)c4)CC3)cc2)ncc1C(F)(F)F)S(C)(=O)=O (stereo not shown) [GT-07510, N-(3-(((2-((4-(4-((5-(2,6-dioxopiperidin-3-yl)pyridin-3-yl)methyl)piperazin-1-yl)phenyl)amino)-5-(trifluoromethyl)pyrimidin-4-yl)amino)methyl)pyrazin-2-yl)-N-methylmethanesulfonamide] | A (A is defined as 0% ≤ substrate protein remaining % ≤ 80%)
CNC(=O)c1ccccc1Nc1cc(Nc2cc(C)c(C3CCN(Cc4ccc(C5CCC(=O)NC5=O)c(F)c4)CC3)cc2OC(C)C)ncc1C(F)(F)F (stereo not shown) [GT-04085, 2-((2-((4-(1-(4-(2,6-dioxopiperidin-3-yl)-3-fluorobenzyl)piperidin-4-yl)-2-isopropoxy-5-methylphenyl)amino)-5-(trifluoromethyl)pyridin-4-yl)amino)-N-methylbenzamide] | A (A is defined as 0% ≤ substrate protein remaining % ≤ 80%)
CN(c1nccnc1CNc1nc(Nc2ccc(N3CCN(Cc4ccc(N5CCC(=O)NC5=O)cc4)CC3)cc2)ncc1C(F)(F)F)S(C)(=O)=O [GT-07400, N-(3-(((2-((4-(4-(4-(2,4-dioxotetrahydropyrimidin-1(2H)-yl)benzyl)piperazin-1-yl)phenyl)amino)-5-(trifluoromethyl)pyrimidin-4-yl)amino)methyl)pyrazin-2-yl)-N-methylmethanesulfonamide] | A (A is defined as 0% ≤ substrate protein remaining % ≤ 80%)
CNC(=O)c1ccccc1Nc1cc(Nc2cc(C)c(C3CCN(Cc4cncc(C5CCC(=O)NC5=O)c4)CC3)cc2OC(C)C)ncc1C(F)(F)F (stereo not shown) [GT-07678, 2-((2-((4-(1-((5-(2,6-dioxopiperidin-3-yl)pyridin-3-yl)methyl)piperidin-4-yl)-2-isopropoxy-5-methylphenyl)amino)-5-(trifluoromethyl)pyridin-4-yl)amino)-N-methylbenzamide] | A (A is defined as 0% ≤ substrate protein remaining % ≤ 80%)
CNC(=O)c1ccccc1Nc1cc(Nc2ccc(N3CCC(N(C)Cc4ccc(N5CCC(=O)NC5=O)cc4)CC3)cc2OC)ncc1C(F)(F)F [GT-07649, 2-((2-((4-(4-((4-(2,4-dioxotetrahydropyrimidin-1(2H)-yl)benzyl)(methyl)amino)piperidin-1-yl)-2-methoxyphenyl)amino)-5-(trifluoromethyl)pyridin-4-yl)amino)-N-methylbenzamide] | A (A is defined as 0% ≤ substrate protein remaining % ≤ 80%)
CNC(=O)c1ccccc1Nc1cc(Nc2cc(C)c(C3CCN(Cc4cnc(N5CCC(=O)NC5=O)cn4)CC3)cc2OC(C)C)ncc1C(F)(F)F [GT-07680, 2-((2-((4-(1-((5-(2,4-dioxotetrahydropyrimidin-1(2H)-yl)pyrazin-2-yl)methyl)piperidin-4-yl)-2-isopropoxy-5-methylphenyl)amino)-5-(trifluoromethyl)pyridin-4-yl)amino)-N-methylbenzamide] | A (A is defined as 0% ≤ substrate protein remaining % ≤ 80%)
CN(c1nccnc1CNc1nc(Nc2ccc(N3CCN(Cc4cc(N5CCC(=O)NC5=O)ncc4F)CC3)cc2)ncc1C(F)(F)F)S(C)(=O)=O [GT-07405, N-(3-(((2-((4-(4-((2-(2,4-dioxotetrahydropyrimidin-1(2H)-yl)-5-fluoropyridin-4-yl)methyl)piperazin-1-yl)phenyl)amino)-5-(trifluoromethyl)pyrimidin-4-yl)amino)methyl)pyrazin-2-yl)-N-methylmethanesulfonamide] | A (A is defined as 0% ≤ substrate protein remaining % ≤ 80%)
CNC(=O)c1ccccc1Nc1cc(Nc2ccc(N3CCC(N(C)Cc4ccnc(N5CCC(=O)NC5=O)c4)CC3)cc2OC)ncc1C(F)(F)F [GT-07654, 2-((2-((4-(4-(((2-(2,4-dioxotetrahydropyrimidin-1(2H)-yl)pyridin-4-yl)methyl)(methyl)amino)piperidin-1-yl)-2-methoxyphenyl)amino)-5-(trifluoromethyl)pyridin-4-yl)amino)-N-methylbenzamide] | A (A is defined as 0% ≤ substrate protein remaining % ≤ 80%)
CN(c1nccnc1CNc1nc(Nc2ccc(N3CCN(Cc4cccc(N5CCC(=O)NC5=O)c4)CC3)cc2)ncc1C(F)(F)F)S(C)(=O)=O [GT-07401, N-(3-(((2-((4-(4-(3-(2,4-dioxotetrahydropyrimidin-1(2H)-yl)benzyl)piperazin-1-yl)phenyl)amino)-5-(trifluoromethyl)pyrimidin-4-yl)amino)methyl)pyrazin-2-yl)-N-methylmethanesulfonamide] | A (A is defined as 0% ≤ substrate protein remaining % ≤ 80%)
CN(c1nccnc1CNc1nc(Nc2ccc(N3CCN(Cc4ccnc(C5CCC(=O)NC5=O)c4)CC3)cc2)ncc1C(F)(F)F)S(C)(=O)=O (stereo not shown) [GT-07507, N-(3-(((2-((4-(4-((2-(2,6-dioxopiperidin-3-yl)pyridin-4-yl)methyl)piperazin-1-yl)phenyl)amino)-5-(trifluoromethyl)pyrimidin-4-yl)amino)methyl)pyrazin-2-yl)-N-methylmethanesulfonamide] | A (A is defined as 0% ≤ substrate protein remaining % ≤ 80%)
CNC(=O)c1ccccc1Nc1cc(Nc2ccc(N3CCC(N(C)Cc4ccc(C5CCC(=O)NC5=O)cn4)CC3)cc2OC)ncc1C(F)(F)F (stereo not shown) [GT-07658, 2-((2-((4-(4-(((5-(2,6-dioxopiperidin-3-yl)pyridin-2-yl)methyl)(methyl)amino)piperidin-1-yl)-2-methoxyphenyl)amino)-5-(trifluoromethyl)pyridin-4-yl)amino)-N-methylbenzamide] | A (A is defined as 0% ≤ substrate protein remaining % ≤ 80%)
CS(=O)(=O)c1cccc(CNc2nc(Nc3ccc(N4CCN(Cc5ccc(C6CCC(=O)NC6=O)cc5)CC4)cc3)ncc2C(F)(F)F)c1 (stereo not shown) [GT-03822, 3-(4-((4-(4-((4-((3-(methylsulfonyl)benzyl)amino)-5-(trifluoromethyl)pyrimidin-2-yl)amino)phenyl)piperazin-1-yl)methyl)phenyl)piperidine-2,6-dione] | A (A is defined as 0% ≤ substrate protein remaining % ≤ 80%)
CNC(=O)c1ccccc1Nc1cc(Nc2cc(C)c(C3CCN(Cc4cncc(N5CCC(=O)NC5=O)c4)CC3)cc2OC(C)C)ncc1C(F)(F)F [GT-07674, 2-((2-((4-(1-((5-(2,4-dioxotetrahydropyrimidin-1(2H)-yl)pyridin-3-yl)methyl)piperidin-4-yl)-2-isopropoxy-5-methylphenyl)amino)-5-(trifluoromethyl)pyridin-4-yl)amino)-N-methylbenzamide] | A (A is defined as 0% ≤ substrate protein remaining % ≤ 80%)
CNC(=O)c1ccccc1Nc1cc(Nc2ccc(N3CCC(N(C)Cc4cccc(N5CCC(=O)NC5=O)c4)CC3)cc2OC)ncc1C(F)(F)F [GT-07650, 2-((2-((4-(4-((3-(2,4-dioxotetrahydropyrimidin-1(2H)-yl)benzyl)(methyl)amino)piperidin-1-yl)-2-methoxyphenyl)amino)-5-(trifluoromethyl)pyridin-4-yl)amino)-N-methylbenzamide] | A (A is defined as 0% ≤ substrate protein remaining % ≤ 80%)
